Results as given in patent US10294234B2, “HIV inhibitor compounds” (priority 2017, dated 2019).
Like-named read-outs stand apart in the source and are kept apart here.

Key:
[1] = test system: HIV-1 (IIIB) in MT-4 cells; assay: MT-4 HIV assay; type: cell-based; details: Human immunodeficiency virus 1, MT4, 120 h; HIV-1 (IIIB), MT-4 cells, 5 days, Cell Titer Glo; read-out: EC50
Method in brief: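 MT-4 cells infected with HIV-1 IIIB (1:250 stock dilution) were incubated with 1:3 serially diluted compounds in RPMI with 10% FBS for 5 days at 37 °C. Cell Titer Glo luminescence was the readout. Plates included mock-infected wells, no-drug wells and 5 uM AZT controls.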

[2] = Protocol: Liver Microsomal Stability Protocol
Test compounds and one control compound (verapamil) were tested in 3 different species in duplicate sets.
Test compound concentration: 1 uM; Protein concentration: 0.5 mg/mL (for dog, rat, and human liver microsomes); Cofactor: NADPH-Regenerating system (NRS) solution; Time-points: 2, 12, 25, 45, and 65 minutes.
Reaction composition (in each incubation well) contains:
After plates were vortexed, they were centrifuged for 30 minutes to remove proteins. About 100 μL supernatant was removed to a new plate and diluted with 150 μL water. About 20 μL of the mixture was injected into LC/MS/MS system to monitor the compound's response. In vitro measured t1/2 was used to calculate Clint values.

[3] = human liver microsomes 0.5 mg/mL, 1 uM compound, NADPH
[4] = rat liver microsomes 0.5 mg/mL, 1 uM compound, NADPH

Structure (SMILES)	EC50 [1] [nM]	Human Pred Cl. ([2]; human, microsomes) [L/H/kg]	Rat. Pred. Cl. ([2]; rat, microsomes) [L/H/kg]	Human Pred Cl. [2, 3] [L/H/kg]	Rat. Pred. Cl. [2, 4] [L/H/kg]
COC(=O)N[C@H](C(=O)N[C@@H](Cc1ccc(C#Cc2ccc(N3CC4CCC(C3)[N+]4(C)C3COC3)nc2)cc1)[C@@H](O)CN(Cc1c(F)cc(-c2ccn(C(F)F)n2)cc1F)NC(=O)[C@@H](NC(=O)OC)C(C)(C)C(F)(F)F)C(C)(C)C(F)(F)F (stereo partly drawn) [Example 48, 3-(5-((4-((2S,3S)-4-(1-(4-(1-(difluoromethyl)-1H-pyrazol-3-yl)-2,6-difluorobenzyl)-2-((S)-4,4,4-trifluoro-2-((methoxycarbonyl)amino)-3,3-dimethylbutanoyl)hydrazinyl)-3-hydroxy-2-((S)-4,4,4-trifluoro-2-((methoxycarbonyl)amino)-3,3-dimethylbutanamido)butyl)phenyl)ethynyl)pyridin-2-yl)-8-methyl-8-(oxetan-3-yl)-3,8-diazabicyclo[3.2.1]octan-8-ium]	114	<0.11	0.18		
COC(=O)N[C@H](C(=O)N[C@@H](Cc1ccc(C#Cc2cnc(N3CC4CCC(C3)N4C3COC3)cn2)cc1)[C@@H](O)CN(Cc1c(F)cc(-c2ccn(C(F)F)n2)cc1F)NC(=O)[C@@H](NC(=O)OC)C(C)(C)C(F)(F)F)C(C)(C)C(F)(F)F [Example 50, Methyl ((5S,8S,9S,14S)-11-(4-(1-(difluoromethyl)-1H-pyrazol-3-yl)-2,6-difluorobenzyl)-16,16,16-trifluoro-9-hydroxy-15,15-dimethyl-8-(4-((5-(8-(oxetan-3-yl)-3,8-diazabicyclo[3.2.1]octan-3-yl)pyrazin-2-yl)ethynyl)benzyl)-3,6,13-trioxo-5-(1,1,1-trifluoro-2-methylpropan-2-yl)-2-oxa-4,7,11,12-tetraazahexadecan-14-yl)carbamate]	4.31	<0.11	<0.18		
COC(=O)N[C@H](C(=O)N[C@@H](Cc1ccc(C#Cc2ccc(N3CC[N+]4([O-])CCOC[C@H]4C3)nc2)cc1)[C@@H](O)CN(Cc1c(F)cc(-c2ccn(C(F)F)n2)cc1F)NC(=O)[C@@H](NC(=O)OC)C(C)(C)C(F)(F)F)C(C)(C)C(F)(F)F (stereo partly drawn) [Example 52, (9aR)-8-(5-((4-((2S,3S)-4-(1-(4-(1-(difluoromethyl)-1H-pyrazol-3-yl)-2,6-difluorobenzyl)-2-((S)-4,4,4-trifluoro-2-((methoxycarbonyl)amino)-3,3-dimethylbutanoyl)hydrazinyl)-3-hydroxy-2-((S)-4,4,4-trifluoro-2-((methoxycarbonyl)amino)-3,3-dimethylbutanamido)butyl)phenyl)ethynyl)pyridin-2-yl)octahydro-5H-pyrazino[2,1-c][1,4]oxazine 5-oxide]	8.15			0.14	<0.18
COC(=O)N[C@H](C(=O)NN(Cc1c(F)cc(-c2ccccn2)cc1F)C[C@H](O)[C@H](Cc1ccc(C#Cc2ccc(N3CC4CCC(C3)N4C3COC3)nc2)cc1)NC(=O)[C@@H](NC(=O)OC)C(C)(C)C(F)(F)F)C(C)(C)C [Example 53, Methyl ((5S,8S,9S,14S)-11-(2,6-difluoro-4-(pyridin-2-yl)benzyl)-9-hydroxy-15,15-dimethyl-8-(4-((6-(8-(oxetan-3-yl)-3,8-diazabicyclo[3.2.1]octan-3-yl)pyridin-3-yl)ethynyl)benzyl)-3,6,13-trioxo-5-(1,1,1-trifluoro-2-methylpropan-2-yl)-2-oxa-4,7,11,12-tetraazahexadecan-14-yl)carbamate]	2.98	0.51	0.2		
COC(=O)N[C@H](C(=O)N[C@@H](Cc1ccc(C#Cc2ccc(N3C4CC3CN(C3COC3)C4)nc2)cc1)[C@@H](O)CN(Cc1c(F)cc(-c2cnn(C(F)F)c2)cc1F)NC(=O)[C@@H](NC(=O)OC)C(C)(C)C(F)(F)F)C(C)(C)C(F)(F)F [Example 59, Methyl ((5S,8S,9S,14S)-11-(4-(1-(difluoromethyl)-1H-pyrazol-4-yl)-2,6-difluorobenzyl)-16,16,16-trifluoro-9-hydroxy-15,15-dimethyl-8-(4-((6-(3-(oxetan-3-yl)-3,6-diazabicyclo[3.1.1]heptan-6-yl)pyridin-3-yl)ethynyl)benzyl)-3,6,13-trioxo-5-(1,1,1-trifluoro-2-methylpropan-2-yl)-2-oxa-4,7,11,12-tetraazahexadecan-14-yl)carbamate]	3.38	0.6	0.83		
COC(=O)N[C@H](C(=O)N[C@@H](Cc1ccc(C#Cc2ccc(N3CC4CC(C3)N4C3COC3)nc2)cc1)[C@@H](O)CN(Cc1c(F)cc(-c2cnn(C(F)F)c2)cc1F)NC(=O)[C@@H](NC(=O)OC)C(C)(C)C(F)(F)F)C(C)(C)C(F)(F)F [Example 60, Methyl ((5S,8S,9S,14S)-11-(4-(1-(difluoromethyl)-1H-pyrazol-4-yl)-2,6-difluorobenzyl)-16,16,16-trifluoro-9-hydroxy-15,15-dimethyl-8-(4-((6-(6-(oxetan-3-yl)-3,6-diazabicyclo[3.1.1]heptan-3-yl)pyridin-3-yl)ethynyl)benzyl)-3,6,13-trioxo-5-(1,1,1-trifluoro-2-methylpropan-2-yl)-2-oxa-4,7,11,12-tetraazahexadecan-14-yl)carbamate]	3.42	0.12	0.65		
COC(=O)N[C@H](C(=O)N[C@@H](Cc1ccc(C#Cc2ccc(N3CC4CC(CN(C(C)=O)C4)C3)nc2)cc1)[C@@H](O)CN(Cc1c(F)cc(-c2cnn(C(F)F)c2)cc1F)NC(=O)[C@@H](NC(=O)OC)C(C)(C)C(F)(F)F)C(C)(C)C(F)(F)F [Example 67, Methyl ((5S,8S,9S,14S)-8-(4-((6-(7-acetyl-3,7-diazabicyclo[3.3.1]nonan-3-yl)pyridin-3-yl)ethynyl)benzyl)-1-(4-(1-(difluoromethyl)-1H-pyrazol-4-yl)-2,6-difluorobenzyl)-16,16,16-trifluoro-9-hydroxy-15,15-dimethyl-3,6,13-trioxo-5-(1,1,1-trifluoro-2-methylpropan-2-yl)-2-oxa-4,7,11,12-tetraazahexadecan-14-yl)carbamate]	6.25			0.41	1.43
COC(=O)N[C@H](C(=O)N[C@@H](Cc1ccc(C#Cc2ccc(N3CC4CCC(C3)O4)nc2)cc1)[C@@H](O)CN(Cc1c(F)cc(-c2cnn(C(F)F)c2)cc1F)NC(=O)[C@@H](NC(=O)OC)C(C)(C)C(F)(F)F)C(C)(C)C(F)(F)F [Example 68, Methyl ((5S,8S,9S,14S)-8-(4-((6-(8-oxa-3-azabicyclo[3.2.1]octan-3-yl)pyridin-3-yl)ethynyl)benzyl)-11-(4-(1-(difluoromethyl)-1H-pyrazol-4-yl)-2,6-difluorobenzyl)-16,16,16-trifluoro-9-hydroxy-15,15-dimethyl-3,6,13-trioxo-5-(1,1,1-trifluoro-2-methylpropan-2-yl)-2-oxa-4,7,11,12-tetraazahexadecan-14-yl)carbamate]	7.25			<0.11	0.61
COC(=O)N[C@H](C(=O)N[C@@H](Cc1ccc(C#Cc2ccc(-c3cn4c(n3)CN(C)C(=O)C4)cc2)cc1)[C@@H](O)CN(Cc1c(F)cc(-c2cnn(C(F)F)c2)cc1F)NC(=O)[C@@H](NC(=O)OC)C(C)(C)C(F)(F)F)C(C)(C)C(F)(F)F [Example 69, Methyl ((5S,8S,9S,14S)-11-(4-(1-(difluoromethyl)-1H-pyrazol-4-yl)-2,6-difluorobenzyl)-16,16,16-trifluoro-9-hydroxy-15,15-dimethyl-8-(4-((4-(7-methyl-6-oxo-5,6,7,8-tetrahydroimidazo[1,2-a]pyrazin-2-yl)phenyl)ethynyl)benzyl)-3,6,13-trioxo-5-(1,1,1-trifluoro-2-methylpropan-2-yl)-2-oxa-4,7,11,12-tetraazahexadecan-14-yl)carbamate]	3.24			<0.11	<0.18
COC(=O)N[C@H](C(=O)N[C@@H](Cc1ccc(C#Cc2ccc(N3CC4CCC(C3)N4S(C)(=O)=O)nc2)cc1)[C@@H](O)CN(Cc1c(F)cc(-c2cnn(C(F)F)c2)cc1F)NC(=O)[C@@H](NC(=O)OC)C(C)(C)C(F)(F)F)C(C)(C)C(F)(F)F [Example 70, Methyl ((5S,8S,9S,14S)-11-(4-(1-(difluoromethyl)-1H-pyrazol-4-yl)-2,6-difluorobenzyl)-16,16,16-trifluoro-9-hydroxy-15,15-dimethyl-8-(4-((6-(8-(methylsulfonyl)-3,8-diazabicyclo[3.2.1]octan-3-yl)pyridin-3-yl)ethynyl)benzyl)-3,6,13-trioxo-5-(1,1,1-trifluoro-2-methylpropan-2-yl)-2-oxa-4,7,11,12-tetraazahexadecan-14-yl)carbamate]	4.79	<0.11	<0.18		
COC(=O)N[C@H](C(=O)NN(Cc1c(F)cc(-c2ccn(C(F)F)n2)cc1F)C[C@H](O)[C@H](Cc1ccc(C#Cc2ccc(N3CC4CCC(C3)N4S(C)(=O)=O)nc2)cc1)NC(=O)[C@@H](NC(=O)OC)C(C)(C)C(F)(F)F)C(C)(C)C [Example 72, Methyl ((5S,8S,9S,14S)-11-(4-(1-(difluoromethyl)-1H-pyrazol-3-yl)-2,6-difluorobenzyl)-9-hydroxy-15,15-dimethyl-8-(4-((6-(8-(methylsulfonyl)-3,8-diazabicyclo[3.2.1]octan-3-yl)pyridin-3-yl)ethynyl)benzyl)-3,6,13-trioxo-5-(1,1,1-trifluoro-2-methylpropan-2-yl)-2-oxa-4,7,11,12-tetraazahexadecan-14-yl)carbamate]	5.19	0.14	<0.18		
